For series [1], the system named is Mus musculus. Nature of the series: Anti-inflammatory activity in para-xylene-induced Kunming mouse ear-swelling model assessed as inhibition of ear swelling at 40 mg/kg, ig measured after 1 hr relative to control. Format: functional. The note with it: po.
Series [2] concerns RAW264.7. Kind of series: Anti-inflammatory activity in mouse RAW264.7 cells assessed as inhibition of LPS-induced IL-6 production pretreated for 2 hrs followed by LPS challenge measured after 22 hrs by ELISA. Format: functional, cell-based.
In series [3] the test system is RAW264.7. Kind of series: Cytotoxicity against mouse RAW264.7 cells at < 50 uM by MTT assay. Format: cell-based.
Series [4] concerns RAW264.7. Nature of the series: Anti-inflammatory activity in mouse RAW264.7 cells assessed as inhibition of LPS-induced TNF-alpha production pretreated for 2 hrs followed by LPS challenge measured after 22 hrs by ELISA. Format: functional, cell-based. On the technique in general: An ELISA detects its analyte on a solid surface through an enzyme-linked reagent.
In series [5] the test system is Mus musculus. Nature of the series: Anti-inflammatory activity in para-xylene-induced Kunming mouse ear-swelling model assessed as inhibition of ear swelling at 100 mg/kg, ig measured after 1 hr relative to control. Format: functional. The following applies: po.
Series [6] deals with Mus musculus. Nature of the series: Anti-inflammatory activity in para-xylene-induced Kunming mouse ear-swelling model assessed as inhibition of ear swelling at 5 mg/kg, ig measured after 1 hr relative to control. Format: functional. The following applies: po.

Molecules are shown by their SMILES.

By inhibition in vivo is commonly meant the percentage by which the read-out fell short of the control. As to `O=C(/C=C/c1ccccc1)c1ccc(N2CCN(c3cccc(Cl)c3Cl)CC2)cc1`, the inhibition in vivo at 40 mg/kg with Mus musculus [1] came to 30.7%.
Turning to `COc1ccc(S(=O)(=O)N2CCN(c3ccc(C(=O)/C=C/c4ccccc4)cc3)CC2)cc1`, the inhibition in vivo at 40 mg/kg in the series with Mus musculus [1] worked out at 45.2%.
Turning to `O=C(/C=C/c1ccccc1)c1ccc(N2CCN(c3cccc(Cl)c3)CC2)cc1`, the inhibition in vivo at 40 mg/kg in the series on Mus musculus [1] was determined as 14.1%.
Turning to `CC(C)c1cc(C(C)C)c(S(=O)(=O)N2CCN(c3ccc(C(=O)/C=C/c4ccccc4)cc3)CC2)c(C(C)C)c1`, the inhibition in vivo at 40 mg/kg in the series on Mus musculus [1] amounted to 60.1%.
Same read-out and setting: under `COc1ccc(S(=O)(=O)N2CCN(c3ccc(C(=O)/C=C/c4ccccc4)cc3)CC2)cc1OC` stands 55.5%; under `COc1cccc(N2CCN(c3ccc(C(=O)/C=C/c4ccc(Cl)cc4)cc3)CC2)c1`, 2.28%.
In the case of `COc1ccc(S(=O)(=O)N2CCN(c3ccc(C(=O)/C=C/c4ccc(OC)c(OC)c4)cc3)CC2)cc1`, the inhibition in vivo at 40 mg/kg in the series with Mus musculus [1] is 64%.
The same measure, in the same setting: to `O=C(/C=C/c1ccc(Cl)cc1)c1ccc(N2CCN(c3cccc(Cl)c3)CC2)cc1` belongs 5.85%.
As for `O=C(/C=C/c1ccccc1)c1ccccc1` [CHALCONE], the inhibition in vivo at 40 mg/kg in the series with Mus musculus [1] was found to be 21.7%.
With `O=C(/C=C/c1ccccc1)c1ccc(N2CCN(S(=O)(=O)c3ccc(OC(F)(F)F)cc3)CC2)cc1`, the inhibition in vivo at 40 mg/kg in the series with Mus musculus [1] was 47.4%.
On the same count and under the same terms, under `COc1cccc(N2CCN(c3ccc(C(=O)/C=C/c4ccccc4)cc3)CC2)c1` stands 16%; under `O=C(/C=C/c1ccc(Cl)cc1)c1ccc(N2CCN(S(=O)(=O)c3ccc(Cl)cc3)CC2)cc1`, 56.6%.
The same measure, in the same setting: under `COc1ccc(N2CCN(c3ccc(C(=O)/C=C/c4ccc(Cl)cc4)cc3)CC2)cc1` stands 55.1%.
On to `O=C(/C=C/c1ccccc1)c1ccc(N2CCN(S(=O)(=O)c3ccc4ccccc4c3)CC2)cc1`, for which the inhibition in vivo at 40 mg/kg in the series on Mus musculus [1] was 35%.
`Cc1ccc(S(=O)(=O)N2CCN(c3ccc(C(=O)/C=C/c4ccccc4)cc3)CC2)cc1`: the inhibition in vivo at 40 mg/kg in the series with Mus musculus [1] was 30.8%.
As to `COc1ccc(/C=C/C(=O)c2ccc(N3CCN(S(=O)(=O)c4ccc(Br)cc4)CC3)cc2)cc1OC`, the inhibition result with RAW264.7 [2] and with RAW264.7 [4] was “Dose-dependent effect” throughout. In addition, the Activity entry in the series on RAW264.7 [3] is listed as “Non-Toxic”. In the series with Mus musculus [1], the inhibition in vivo at 40 mg/kg was 75.5%.
Regarding `O=C(/C=C/c1ccccc1)c1ccc(N2CCN(c3ccccc3Cl)CC2)cc1`, the inhibition in vivo at 40 mg/kg in the series with Mus musculus [1] is 4.71%.
As to `Cc1ccc(N2CCN(c3ccc(C(=O)/C=C/c4ccccc4)cc3)CC2)c(C)c1`, in the series with Mus musculus [1], the inhibition in vivo at 40 mg/kg worked out at 15%.
As to `O=C(/C=C/c1ccccc1)c1ccc(N2CCN(S(=O)(=O)c3ccc(Cl)cc3)CC2)cc1`, the inhibition in vivo at 40 mg/kg in the series on Mus musculus [1] is 46.8%.
Consider `O=C(/C=C/c1ccccc1)c1ccc(N2CCN(Cc3ccccc3)CC2)cc1`, for which the inhibition in vivo at 40 mg/kg in the series with Mus musculus [1] is 17.7%.
With `Cc1ccc(N2CCN(c3ccc(C(=O)/C=C/c4ccccc4)cc3)CC2)cc1`, the inhibition in vivo at 40 mg/kg with Mus musculus [1] stood at 2.85%.
On the same count and under the same terms, to `O=C(/C=C/c1ccccc1)c1ccc(N2CCN(c3ccc([N+](=O)[O-])cc3)CC2)cc1` belongs 55.4%.
Turning to `O=C(/C=C/c1ccccc1)c1ccc(N2CCN(c3cccc(C(F)(F)F)c3)CC2)cc1`, the inhibition in vivo at 40 mg/kg with Mus musculus [1] amounted to 25%.
Regarding `O=C(/C=C/c1ccccc1)c1ccc(N2CCN(S(=O)(=O)c3ccc(Br)cc3)CC2)cc1`, the inhibition in vivo at 40 mg/kg in the series on Mus musculus [1] came to 47.4%.
In the case of `Cc1ccc(N2CCN(c3ccc(C(=O)/C=C/c4ccc(Cl)cc4)cc3)CC2)c(C)c1`, the inhibition in vivo at 40 mg/kg with Mus musculus [1] was 25.7%.
As to `CCCCc1ccc(S(=O)(=O)N2CCN(c3ccc(C(=O)/C=C/c4ccccc4)cc3)CC2)cc1`, the inhibition in vivo at 40 mg/kg in the series on Mus musculus [1] stood at 24%.
Consider `COc1ccc(/C=C/C(=O)c2ccc(N3CCN(c4ccc(Cl)c(Cl)c4)CC3)cc2)cc1OC`, for which the inhibition in vivo at 40 mg/kg in the series on Mus musculus [1] was 63.5%.
The same measure, in the same setting: to `Cc1cc(C)c(S(=O)(=O)N2CCN(c3ccc(C(=O)/C=C/c4ccccc4)cc3)CC2)c(C)c1` belongs 55.5%; to `O=C(/C=C/c1ccccc1)c1ccc(N2CCN(c3ccc(Cl)c(Cl)c3)CC2)cc1`, 13.4%; to `O=C(/C=C/c1ccc(Cl)cc1)c1ccc(N2CCN(S(=O)(=O)c3ccc(C(F)(F)F)cc3)CC2)cc1`, 59.6%.
Still for that read-out and setting: under `O=C(/C=C/c1ccccc1)c1ccc(N2CCN(c3ccccc3)CC2)cc1` stands 3.71%; under `O=C(/C=C/c1ccccc1)c1ccc(N2CCN(S(=O)(=O)c3ccccc3)CC2)cc1`, 30%.
Turning to `CC(=O)Oc1ccccc1C(=O)O` [ASPIRIN], the inhibition in vivo at 100 mg/kg in the series on Mus musculus [5] was determined as 64.9%.
`COc1ccc(/C=C/C(=O)c2ccc(N3CCN(c4ccc(C)cc4C)CC3)cc2)cc1OC`: the inhibition in vivo at 40 mg/kg with Mus musculus [1] is 48.5%.
`O=C(/C=C/c1ccccc1)c1ccc(N2CCN(S(=O)(=O)c3ccc(C(F)(F)F)cc3)CC2)cc1`: in the series with Mus musculus [1], the inhibition in vivo at 40 mg/kg amounted to 47.9%.
`Cc1ccc(-c2cc(C(F)(F)F)nn2-c2ccc(S(N)(=O)=O)cc2)cc1` [CELECOXIB]: the inhibition in vivo at 5 mg/kg in the series on Mus musculus [6] is 77%.
On to `O=C(/C=C/c1ccccc1)c1ccc(N2CCN(c3ccccc3F)CC2)cc1`, for which the inhibition in vivo at 40 mg/kg with Mus musculus [1] turned out to be 0.57%.
On the same count and under the same terms, to `COc1ccccc1N1CCN(c2ccc(C(=O)/C=C/c3ccc(Cl)cc3)cc2)CC1` belongs 6.13%.

The values above are taken from ChEMBL document CHEMBL4000197, “Design, synthesis, biological evaluation, and molecular docking of chalcone derivatives as anti-inflammatory agents” (Bioorg Med Chem Lett, 2017).
